# Tested on: small cell lung cancer cell lines
# Assay: qRT-PCR time- and dosage-dependent expression change of candidate PD markers ASCL1, GRP, NOTCH1 in SCLC cell lines
# Format: cell-based, human
# Experimental: Seven small cell lung cancer cell lines were treated with 0.1 nM, 1 nM and 10 nM (trans)-N1-((1R,2S)-2-phenylcyclopropyl)cyclohexane-1,4-diamine or vehicle 24 hr, 96 hr and 7 days. Lysates were prepared by lysis in RNA lysis buffer containing 1% β-mercaptoethanol. RNA extraction was performed using a Maxwell 16 instrument and a Maxwell 16 LEV simply RNA cells Kit (Promega), according to the manufacturer's instructions. The mRNA expression levels of each cell line after treatment were then measured using qRT-PCR. The RT-qPCR reaction was conducted using a one-step kit (ABI), with a duplexed house-keeping control (Assay ID Hs02800695_m1) using the assays in the table below. The log 2 fold changes for each gene were calculated by comparing with the vehicle controlled samples at 24 hr sampling point.
# Table 6 contains the dose-dependent effect on expression changes for candidate PD markers ASCL1 (Assay ID Hs04187546_g1), GRP (Assay ID Hs01107047_m1) and NOTCH1 (Assay ID Hs01062014_m1).
# [1] = LSD1i responsive cell lines, qRT-PCR
# [2] = NCI-H69, 0.1 nM, 24 hrs, vs vehicle at 24 hr
# [3] = NCI-H69, 0.1 nM, 96 hrs, vs vehicle at 24 hr
# [4] = NCI-H69, 0.1 nM, 168 hrs, vs vehicle at 24 hr
# [5] = NCI-H69, 1 nM, 24 hrs, vs vehicle at 24 hr
# [6] = NCI-H69, 1 nM, 96 hrs, vs vehicle at 24 hr
# [7] = NCI-H69, 1 nM, 168 hrs, vs vehicle at 24 hr
# [8] = NCI-H69, 10 nM, 24 hrs, vs vehicle at 24 hr
# [9] = NCI-H69, 10 nM, 96 hrs, vs vehicle at 24 hr
# [10] = NCI-H69, 10 nM, 168 hrs, vs vehicle at 24 hr
smiles,measurement,setting,value
"N[C@H]1CC[C@H](N[C@@H]2C[C@H]2c2ccccc2)CC1 [RG6016, (trans)-N1-((1R,2S)-2-phenylcyclopropyl)cyclohexane-1,4-diamine]",Log2_FC ASCL1,"DMS-114, 0.1 nM, 24 hrs",−0.28
same,Log2_FC GRP,"DMS-114, 0.1 nM, 24 hrs",0.32
same,Log2_FC NOTCH1,"DMS-114, 0.1 nM, 24 hrs",−0.47
same,Log2_FC ASCL1,"DMS-114, 0.1 nM, 96 hrs",0.18
same,Log2_FC GRP,"DMS-114, 0.1 nM, 96 hrs",0.25
same,Log2_FC NOTCH1,"DMS-114, 0.1 nM, 96 hrs",−0.11
same,Log2_FC ASCL1,"DMS-114, 0.1 nM, 168 hrs",0.93
same,Log2_FC GRP,"DMS-114, 0.1 nM, 168 hrs",0.08
same,Log2_FC NOTCH1,"DMS-114, 0.1 nM, 168 hrs",0.08
same,Log2_FC ASCL1,"DMS-114, 1 nM, 24 hrs",−0.50
same,Log2_FC GRP,"DMS-114, 1 nM, 24 hrs",0.45
same,Log2_FC NOTCH1,"DMS-114, 1 nM, 24 hrs",−0.47
same,Log2_FC ASCL1,"DMS-114, 1 nM, 96 hrs",−0.04
same,Log2_FC GRP,"DMS-114, 1 nM, 96 hrs",−0.34
same,Log2_FC NOTCH1,"DMS-114, 1 nM, 96 hrs",−0.23
same,Log2_FC ASCL1,"DMS-114, 1 nM, 168 hrs",1.02
same,Log2_FC GRP,"DMS-114, 1 nM, 168 hrs",0.86
same,Log2_FC NOTCH1,"DMS-114, 1 nM, 168 hrs",0.08
same,Log2_FC ASCL1,"DMS-114, 10 nM, 24 hrs",−0.52
same,Log2_FC GRP,"DMS-114, 10 nM, 24 hrs",0.51
same,Log2_FC NOTCH1,"DMS-114, 10 nM, 24 hrs",−0.35
same,Log2_FC ASCL1,"DMS-114, 10 nM, 96 hrs",−0.38
same,Log2_FC GRP,"DMS-114, 10 nM, 96 hrs",0.67
same,Log2_FC NOTCH1,"DMS-114, 10 nM, 96 hrs",−0.30
same,Log2_FC ASCL1,"DMS-114, 10 nM, 168 hrs",0.94
same,Log2_FC GRP,"DMS-114, 10 nM, 168 hrs",−0.12
same,Log2_FC NOTCH1,"DMS-114, 10 nM, 168 hrs",0.13
same,Regulation of ASCL1 (FIG. 8),[1],down
same,Regulation of GRP (FIG. 8),[1],down
same,Regulation of NOTCH1 (FIG. 8),[1],up
same,Log2_FC ASCL1,[2],−0.47
same,Log2_FC GRP,[2],−0.77
same,Log2_FC NOTCH1,[2],−0.17
same,Log2_FC ASCL1,[3],−0.63
same,Log2_FC GRP,[3],−1.46
same,Log2_FC NOTCH1,[3],0.57
same,Log2_FC ASCL1,[4],−0.75
same,Log2_FC GRP,[4],−1.26
same,Log2_FC NOTCH1,[4],0.94
same,Log2_FC ASCL1,[5],−0.71
same,Log2_FC GRP,[5],−0.51
same,Log2_FC NOTCH1,[5],0.26
same,Log2_FC ASCL1,[6],−1.33
same,Log2_FC GRP,[6],−2.14
same,Log2_FC NOTCH1,[6],2.26
same,Log2_FC ASCL1,[7],−1.36
same,Log2_FC GRP,[7],−2.12
same,Log2_FC NOTCH1,[7],2.38
same,Log2_FC ASCL1,[8],−0.80
same,Log2_FC GRP,[8],−0.97
same,Log2_FC NOTCH1,[8],1.33
same,Log2_FC ASCL1,[9],−1.40
same,Log2_FC GRP,[9],−2.19
same,Log2_FC NOTCH1,[9],2.42
same,Log2_FC ASCL1,[10],−1.62
same,Log2_FC GRP,[10],−2.85
same,Log2_FC NOTCH1,[10],3.22
same,Log2_FC ASCL1,"NCI-H187, 0.1 nM, 24 hrs",0.07
same,Log2_FC GRP,"NCI-H187, 0.1 nM, 24 hrs",0.16
same,Log2_FC NOTCH1,"NCI-H187, 0.1 nM, 24 hrs",−0.27
same,Log2_FC ASCL1,"NCI-H187, 0.1 nM, 96 hrs",0.24
same,Log2_FC GRP,"NCI-H187, 0.1 nM, 96 hrs",−0.29
same,Log2_FC NOTCH1,"NCI-H187, 0.1 nM, 96 hrs",0.10
same,Log2_FC ASCL1,"NCI-H187, 0.1 nM, 168 hrs",0.11
same,Log2_FC GRP,"NCI-H187, 0.1 nM, 168 hrs",−0.50
same,Log2_FC NOTCH1,"NCI-H187, 0.1 nM, 168 hrs",0.27
same,Log2_FC ASCL1,"NCI-H187, 1 nM, 24 hrs",−0.01
same,Log2_FC GRP,"NCI-H187, 1 nM, 24 hrs",0.05
same,Log2_FC NOTCH1,"NCI-H187, 1 nM, 24 hrs",0.49
same,Log2_FC ASCL1,"NCI-H187, 1 nM, 96 hrs",0.05
same,Log2_FC GRP,"NCI-H187, 1 nM, 96 hrs",−0.03
same,Log2_FC NOTCH1,"NCI-H187, 1 nM, 96 hrs",0.81
same,Log2_FC ASCL1,"NCI-H187, 1 nM, 168 hrs",0.16
same,Log2_FC GRP,"NCI-H187, 1 nM, 168 hrs",−0.59
same,Log2_FC NOTCH1,"NCI-H187, 1 nM, 168 hrs",0.95
same,Log2_FC ASCL1,"NCI-H187, 10 nM, 24 hrs",0.13
same,Log2_FC GRP,"NCI-H187, 10 nM, 24 hrs",−0.16
same,Log2_FC NOTCH1,"NCI-H187, 10 nM, 24 hrs",0.42
same,Log2_FC ASCL1,"NCI-H187, 10 nM, 96 hrs",0.13
same,Log2_FC GRP,"NCI-H187, 10 nM, 96 hrs",−0.61
same,Log2_FC NOTCH1,"NCI-H187, 10 nM, 96 hrs",0.83
same,Log2_FC ASCL1,"NCI-H187, 10 nM, 168 hrs",0.07
same,Log2_FC GRP,"NCI-H187, 10 nM, 168 hrs",−0.67
same,Log2_FC NOTCH1,"NCI-H187, 10 nM, 168 hrs",1.44
same,Log2_FC ASCL1,"NCI-H446, 0.1 nM, 24 hrs",−0.27
same,Log2_FC NOTCH1,"NCI-H446, 0.1 nM, 24 hrs",−0.04
same,Log2_FC NOTCH1,"NCI-H446, 0.1 nM, 96 hrs",−0.13
same,Log2_FC ASCL1,"NCI-H446, 0.1 nM, 168 hrs",−0.56
same,Log2_FC NOTCH1,"NCI-H446, 0.1 nM, 168 hrs",−0.40
same,Log2_FC ASCL1,"NCI-H446, 1 nM, 24 hrs",0.00
same,Log2_FC NOTCH1,"NCI-H446, 1 nM, 24 hrs",−0.02
same,Log2_FC ASCL1,"NCI-H446, 1 nM, 96 hrs",−0.20
same,Log2_FC NOTCH1,"NCI-H446, 1 nM, 96 hrs",0.06
same,Log2_FC ASCL1,"NCI-H446, 1 nM, 168 hrs",0.02
same,Log2_FC NOTCH1,"NCI-H446, 1 nM, 168 hrs",0.29
same,Log2_FC ASCL1,"NCI-H446, 10 nM, 24 hrs",−0.34
same,Log2_FC NOTCH1,"NCI-H446, 10 nM, 24 hrs",0.04
same,Log2_FC NOTCH1,"NCI-H446, 10 nM, 96 hrs",0.16
same,Log2_FC ASCL1,"NCI-H446, 10 nM, 168 hrs",0.58
same,Log2_FC NOTCH1,"NCI-H446, 10 nM, 168 hrs",0.42
same,Log2_FC NOTCH1,"NCI-H510A, 0.1 nM, 24 hrs, vs vehicle at 24 hr",0.53
same,Log2_FC NOTCH1,"NCI-H510A, 0.1 nM, 96 hrs, vs vehicle at 24 hr",1.93
same,Log2_FC NOTCH1,"NCI-H510A, 0.1 nM, 168 hrs, vs vehicle at 24 hr",3.00
same,Log2_FC ASCL1,"NCI-H510A, 0.1 nM, 24 hrs",0.07
same,Log2_FC GRP,"NCI-H510A, 0.1 nM, 24 hrs",0.22
same,Log2_FC ASCL1,"NCI-H510A, 0.1 nM, 96 hrs",0.17
same,Log2_FC GRP,"NCI-H510A, 0.1 nM, 96 hrs",−0.30
same,Log2_FC ASCL1,"NCI-H510A, 0.1 nM, 168 hrs",0.03
same,Log2_FC GRP,"NCI-H510A, 0.1 nM, 168 hrs",−0.44
same,Log2_FC ASCL1,"NCI-H510A, 1 nM, 24 hrs",−0.23
same,Log2_FC GRP,"NCI-H510A, 1 nM, 24 hrs",−0.30
same,Log2_FC NOTCH1,"NCI-H510A, 1 nM, 24 hrs",1.19
same,Log2_FC ASCL1,"NCI-H510A, 1 nM, 96 hrs",−0.50
same,Log2_FC GRP,"NCI-H510A, 1 nM, 96 hrs",−1.75
same,Log2_FC NOTCH1,"NCI-H510A, 1 nM, 96 hrs",2.87
